According to patent US9040725B2, “Benzocycloheptane and benzoxepine derivatives” (Janssen Pharmaceutica NV, priority 2008, dated 2015):
Where two headings read alike, the source gives them in different places.

Experiments:
[1] = system: NMRI-mice; experiment: Acceleration of gastric emptying and small intestinal propulsion in NMRI-mice; format: in vivo; conditions: lowest active dose, subcutaneous, 30 min before phenol red test meal; for minimal effective dose: Mus musculus, sc
Description: Male NMRI-mice weighing around 25 gram were fasted for 20 h and had free access to drinking water. Test compounds were administered to the animals by subcutaneous route 30 min before they were given a test meal by oral gavage. The test meal consisted of 0.3 ml of a chocolate nutridrink solution (1.0 kcal/ml) containing phenol red marker (5 mg/ml). Fifteen min after administration of the meal, the mice were sacrificed by CO2 gas inhalation. The phenol red content remaining in the stomach (extracted from the stomach with NaOH) was determined at 557 nm in a spectrophotometer and expressed as extinction units. Small intestinal propulsion was determined as the distance traveled by the phenol red marker through the intestine and expressed as a percentage of total small intestinal length (from the pylorus to the ileo-cecal junction).
The lowest dose that was active for each parameter was noted as the lowest active dose (LAD). Table 12 discloses LAD values.

[2] = target: T1, GHS1A-receptor (Homo sapiens, UniProt Q92847); experiment: Ghrelin-agonism in HEK293 cells (intracellular calcium, FLIPR); format: cell-based; conditions: HEK293 cells permanently transfected with GHS1A-receptor, calcium fluorescence (fluo-4 or Kit-3), EC50 in M, read-out: pEC50 (converted)
T1 construct: expressed in transfected cells; host or cells: HEK293
T1 sequence (Q92847 whole entry): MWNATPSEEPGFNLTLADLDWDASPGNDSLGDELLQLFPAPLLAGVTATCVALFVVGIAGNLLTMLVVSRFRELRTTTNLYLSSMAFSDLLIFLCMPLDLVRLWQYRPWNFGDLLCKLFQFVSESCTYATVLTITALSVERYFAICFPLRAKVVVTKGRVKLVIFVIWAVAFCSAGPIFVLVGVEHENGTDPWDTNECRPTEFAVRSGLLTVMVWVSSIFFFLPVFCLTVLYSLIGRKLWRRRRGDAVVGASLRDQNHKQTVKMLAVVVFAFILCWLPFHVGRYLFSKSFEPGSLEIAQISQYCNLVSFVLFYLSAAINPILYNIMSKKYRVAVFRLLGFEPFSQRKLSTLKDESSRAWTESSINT
Description: One day before the experiment, HEK293 cells, permanently transfected with the gene sequence for expression of the GHS1A-receptor, were seeded in poly-D-Lysine coated 96-well plates with clear bottom, and allowed to grow to […] of confluence on the next day.
Then, cells were incubated with the calcium-sensitive intracellular fluorescent probe fluo-4 or Kit-3 for 1 h at 37° C. Fluorescence representing free intracellular calcium in the cells was measured in a FLIPR-system (excitation at 488 nm, emission>520 nm). Test compounds were added to each well at the desired concentration and the fluorescence signal was simultaneously recorded in all wells. Release of intracellular calcium triggered by activation of the receptors upon addition of the test compound was measured as the fluorescence emitted from the complex of calcium and the fluorescent probe. The drug effect on fluorescence intensity was expressed relative to the maximal fluorescence intensity measured in cells exposed to the calcium-ionophore ionomycin.

[3] = active when >60% of animals had phenol red front beyond 85% of small intestinal length, read-out: LAD (mg/kg) Small intestinal propulsion
[4] = stomach content 15 min after meal, active when >60% of animals below 0.9 extinction units, read-out: LAD (mg/kg) Gastric emptying

| EC50 [2] | Compound | other results |
| --- | --- | --- |
| 794 nM | CNCCCC1(O)c2ccccc2CCCC1c1ccc(OC)cc1 (racemic) [Compound 65] |  |
| 794 nM | COc1ccc(C2CCCc3ccccc3C2(O)CCCN(C)C)cc1OC (racemic) [Compound 77] |  |
| 1260 nM | COCCN(C)CCCC1(O)c2ccccc2CCCC1c1ccc(OC)cc1 (racemic) [Compound 70] |  |
| 200 nM | CNCCCC1(O)c2ccccc2CCCC1c1ccccc1 (racemic) [Compound 19] | minimal effective dose [1, 3]: > 10 mg/kg; minimal effective dose [1, 4]: > 10 mg/kg |
| 2510 nM | COc1cccc(C2CCCc3ccccc3C2(O)CCCN(C)Cc2ccccc2)c1 (racemic) [Compound 62] |  |
| 12.6 nM | CN(C)CCCC1(O)c2ccccc2CCCC1c1ccc(F)cc1 (racemic) [Compound 52] | minimal effective dose [1, 3]: > 10 mg/kg; minimal effective dose [1, 4]: > 10 mg/kg |
| 15.8 nM | COCCN(C)CCCC1(O)c2ccccc2CCCC1c1ccc(Cl)c(OC)c1 (racemic) [Compound 75] |  |
| 7.94 nM | CCN(CC)CCCC1(O)c2ccccc2CCCC1c1cccc(Cl)c1 (racemic) [Compound 41] | minimal effective dose [1, 3]: > 10 mg/kg; minimal effective dose [1, 4]: > 10 mg/kg |
| 251 nM | Cc1ccc([C@H]2CCOc3ccccc3[C@]2(O)CCCN(C)Cc2ccccc2)cc1 (racemic) [Compound 10] |  |
| 1000 nM | CN(C)CCCC1(O)c2ccccc2CCCC1c1ccc(Cl)cc1 (single isomer, unassigned) [Compound 5] |  |
| 25100 nM | COc1ccc(C2CCCc3ccccc3C2(O)CCCN)cc1 (racemic) [Compound 64] |  |
| 31.6 nM | COCCN(C)CCCC1(O)c2ccccc2CCCC1c1cccc(C)c1 (racemic) [Compound 23] |  |
| 2000 nM | COCCN(C)CCCC1(O)c2ccccc2CCCC1c1ccc(O)cc1 (racemic) [Compound 37] |  |
| 25.1 nM | CCN(CC)CCCC1(O)c2ccccc2CCCC1c1cccc(OC)c1 (racemic) [Compound 61] |  |
| 2000 nM | CN(C)CCCC1(O)c2ccccc2CCCC1c1ccccc1 (single isomer, unassigned) [Compound 104] |  |
| 5010 nM | CN(CCCC1(O)c2ccccc2CCCC1c1ccc(Cl)cc1)Cc1ccccc1 (racemic) [Compound 47] |  |
| 10 nM | CN(C)CCCC1(O)c2ccccc2CCCC1c1ccc(Cl)cc1 (single isomer, unassigned) [Compound 6] |  |
| > 31600 nM | COc1ccc(C2CCCc3ccccc3C2(O)CCCNCc2ccccc2)cc1 (racemic) [Compound 68] |  |
| 3980 nM | Cc1cccc(C2CCCc3ccccc3C2(O)CCCN(C)Cc2ccccc2)c1 (racemic) [Compound 24] |  |
| > 10000 nM | COc1ccc(C2CCCc3ccccc3C2(O)CCCN(C)Cc2ccccc2)cc1 (racemic) [Compound 69] |  |
| 1580 nM | CN(CCCC1(O)c2ccccc2CCCC1c1cnc2ccccc2c1)Cc1ccccc1 (racemic) [Compound 87] |  |

Further lines, the compound ahead of its results:

| Compound | EC50 [2] | other results |
| --- | --- | --- |
| CC(=O)N1CCN(CCCC2(O)c3ccccc3CCCC2c2ccc(F)cc2F)CC1 (racemic) [Compound 60] | 3980 nM | minimal effective dose [1, 3]: 10 mg/kg; minimal effective dose [1, 4]: > 10 mg/kg |
| CCN(CC)CCCC1(O)c2ccccc2OCCC1c1ccc(Cl)c(OC)c1 (racemic) [Compound 98] | 10 nM | minimal effective dose [1, 3]: 10 mg/kg; minimal effective dose [1, 4]: 10 mg/kg |
| COc1ccc(C2CCOc3ccccc3C2(O)CCCN(C)C)cn1 (racemic) [Compound 102] | 7940 nM | minimal effective dose [1, 3]: > 10 mg/kg; minimal effective dose [1, 4]: > 10 mg/kg |
| CN(C)CCC[C@@]1(O)c2ccccc2CCC[C@@H]1c1ccc(Cl)cc1 (racemic) [Compound 1] | 39.8 nM | minimal effective dose [1, 3]: 2.5 mg/kg; minimal effective dose [1, 4]: 2.5 mg/kg |
| CCN(CC)CCCC1(O)c2ccccc2CCCC1c1ccc2c(c1)OCO2 (racemic) [Compound 89] | 39.8 nM | minimal effective dose [1, 3]: > 10 mg/kg; minimal effective dose [1, 4]: > 10 mg/kg |
| CN1CCN(CCCC2(O)c3ccccc3CCCC2c2ccc(F)cc2)CC1 (racemic) [Compound 55] | 1580 nM |  |
| COc1cc(C2CCOc3ccccc3C2(O)CCCN(C)C)ccc1Cl (racemic) [Compound 97] | 25.1 nM | minimal effective dose [1, 3]: 2.5 mg/kg; minimal effective dose [1, 4]: 2.5 mg/kg |
| Cc1ccc([C@H]2CCCc3ccccc3[C@]2(O)CCCN(C)C)cn1 [Compound 12] | 251 nM | minimal effective dose [1, 3]: > 10 mg/kg; minimal effective dose [1, 4]: > 10 mg/kg |
| OC1(CCCN2CCCCC2)c2ccccc2CCCC1c1ccc(Cl)cc1 (racemic) [Compound 50] | 794 nM |  |
| CN(C)CCCC1(O)c2ccccc2CCCC1c1ccc(Br)cc1 (racemic) [Compound 38] | 25.1 nM | minimal effective dose [1, 3]: > 10 mg/kg; minimal effective dose [1, 4]: > 10 mg/kg |
| CCN(CC)CCCC1(O)c2ccccc2CCCC1c1ccc(F)cc1F (racemic) [Compound 57] | 31.6 nM | minimal effective dose [1, 3]: 10 mg/kg; minimal effective dose [1, 4]: 10 mg/kg |
| CNCCCC1(O)c2ccccc2CCCC1c1cccc(Cl)c1 (racemic) [Compound 39] | 50.1 nM | minimal effective dose [1, 3]: > 10 mg/kg; minimal effective dose [1, 4]: > 10 mg/kg |
| COCCN(C)CCCC1(O)c2ccccc2CCCC1c1ccc2c(c1)OCO2 (racemic) [Compound 90] | 158 nM |  |
| CCN(CC)CCCC1(O)c2ccccc2CCCC1c1ccc(C)cc1 (racemic) [Compound 31] | 25.1 nM |  |
| Cc1ccc(C2CCCc3ccccc3C2(O)CCCN(C)C)cc1 (racemic) [Compound 29] | 15.8 nM | minimal effective dose [1, 3]: 10 mg/kg; minimal effective dose [1, 4]: 10 mg/kg |
| CNCCCC1(O)c2ccccc2CCCC1c1ccc(OC)c(OC)c1 (racemic) [Compound 76] | 1580 nM |  |
| COc1cc(C2CCCc3ccccc3C2(O)CCCN2CCC(O)C2)ccc1Cl (racemic) [Compound 73] | 316 nM | minimal effective dose [1, 3]: 10 mg/kg; minimal effective dose [1, 4]: > 10 mg/kg |
| CNCCC[C@@]1(O)c2ccccc2OCC[C@@H]1c1ccc(C)cc1 [Compound 11] | 398 nM | minimal effective dose [1, 3]: > 10 mg/kg; minimal effective dose [1, 4]: > 10 mg/kg |
| CC(C)NCCCC1(O)c2ccccc2CCCC1c1cncc(Cl)c1 (racemic) [Compound 82] | 251 nM | minimal effective dose [1, 3]: > 10 mg/kg; minimal effective dose [1, 4]: > 10 mg/kg |

| Compound | EC50 [2] | other results |
| --- | --- | --- |
| OC1(CCCN2CCCCC2)c2ccccc2CCCC1c1ccc(F)cc1F (racemic) [Compound 59] | > 10000 nM |  |
| CC(=O)N1CCN(CCCC2(O)c3ccccc3CCCC2c2cccc(C)c2)CC1 (racemic) [Compound 26] | 3160 nM |  |
| Oc1ccc([C@H]2CCCc3ccccc3[C@]2(O)CCCN2CCOCC2)cc1 (racemic) [Compound 7] | > 10000 nM |  |
| GHRP-6 [reference compound] |  | LAD (mg/kg) Small intestinal propulsion ([1]; active when >60% of animals had phenol red front beyond 85% of small intestinal length): 2.5 mg/kg; LAD (mg/kg) Gastric emptying ([1]; stomach content 15 min after meal, active when >60% of animals below 0.9 extinction units): 0.63 mg/kg |
| Cc1ccc(C2CCCc3ccccc3C2(O)CCCN2CCN(C)CC2)cc1 (racemic) [Compound 33] | 3160 nM |  |
| CCN(CC)CCCC1(O)c2ccccc2OCCC1c1ccc(OC)nc1 (racemic) [Compound 103] | 6310 nM |  |
| CCNCCCC1(O)c2ccccc2CCCC1c1ccc(Cl)cc1 (racemic) [Compound 44] | 501 nM |  |
| Cc1cccc(C2CCCc3ccccc3C2(O)CCCN2CCOCC2)c1 (racemic) [Compound 25] | 1580 nM |  |
| OC1(CCCN2CCNCC2)c2ccccc2CCCC1c1ccc(Cl)cc1 (racemic) [Compound 51] | 1580 nM |  |
| Cc1ccc(C2CCCc3ccccc3C2(O)CCCN2CCCCC2)cc1 (racemic) [Compound 32] | 1000 nM |  |
| CC(C)NCCCC1(O)c2ccccc2CCCC1c1ccc(Cl)cc1 (racemic) [Compound 45] | 794 nM |  |
| CCN(CC)CCCC1(O)c2ccccc2OCCC1c1cncc(OC)c1 (racemic) [Compound 101] | 2000 nM |  |
| CN(C)CCC[C@@]1(O)c2ccccc2OCC[C@@H]1c1ccccc1 (relative stereo) [Compound 8] | 316 nM |  |
| COCCN(C)CCCC1(O)c2ccccc2CCCC1c1ccc(OC)c(OC)c1 (racemic) [Compound 79] | 2000 nM |  |
| OC1CCN(CCCC2(O)c3ccccc3CCCC2c2ccc3c(c2)OCO3)C1 (racemic) [Compound 91] | 1000 nM |  |
| CO[C@]1(CCCN(C)C)c2ccccc2CCC[C@@H]1c1ccc(Cl)cc1 (racemic) [Compound 15] | 1580 nM |  |
| COc1cncc(C2CCOc3ccccc3C2(O)CCCN(C)C)c1 (racemic) [Compound 100] | 3980 nM |  |
| OC1CCN(CCCC2(O)c3ccccc3CCCC2c2ccc(Cl)cc2)C1 (racemic) [Compound 49] | 79.4 nM |  |
| Cc1ccc([C@H]2CCOc3ccccc3[C@]2(O)CCCN(C)C)cn1 (racemic) [Compound 9] | 794 nM |  |
